Results published in US20210400967A1, “COMPOSITIONS COMPRISING PYRIDINE CARBOXYLATE HERBICIDES WITH GLYPHOSATE OR GLUFOSINATE” (Corteva Agriscience LLC, priority 2018, published 2021).

Legend:
Format in all cases: in vivo
[1] = tested on: Brassica napus (winter rape); assay: Greenhouse postemergence herbicidal effect, winter rape (BRSNW); details: Example 6; Glufosinate 112.5 g ai/ha alone; 20-22 d
Source text: (§1) Greenhouse Trial Methodology—Evaluation of Postemergence Herbicidal Effect
(§2) Seeds of the desired test plant species were planted in a 90:10% v/v (volume/volume) mixture of PRO-MIX® BX (Premier Tech Horticulture, Quakertown, Pa., USA) and PROFILE® GREENS GRADE™ (Profile Products LLC, Buffalo Grove, Ill., USA) planting mixture, which typically has a pH of 5.2 to 6.2 and an organic matter content of at least 50 percent, in plastic pots with a surface area of 103.2 square centimeters (cm^2). In some aspects, to ensure good germination and healthy plants, a fungicide treatment and/or other chemical or physical treatment was applied. The plants were grown for 7-36 days (d) in a greenhouse with an approximate 14-hour (h) photo-period which was maintained at about 23° C. during the day and 22° C. during the night. Nutrients and water were added on a regular basis and supplemental lighting was provided with overhead metal halide 1000-Watt lamps as necessary. The plants were employed for testing when they reached the second or third true leaf stage.
(§3) Emulsifiable concentrates of each of each pyridine carboxylate herbicide (Compound A or Compound B) were prepared at 100 grams acid equivalent per liter (g ae/L). The emulsifiable concentrates also included a safener, cloquintocet-mexyl, at 120 grams active ingredient per liter (g ai/L). An aliquot of each emulsifiable concentrate was placed in a 25 mL glass vial and diluted with an aqueous mixture of 1.25% (v/v) ACTIROB® B esterified rapeseed oil (Bayer Crop Science, Research Triangle Park, N.C., USA) or MSO® Concentrate with LECI-TECH® methylated soybean oil (Loveland Products, Loveland, Colo., USA) to obtain concentrated stock solutions at the highest application rate for each herbicide, based upon a 12 milliliter (mL) application volume at a rate of 187 liters per hectare (L/ha). The concentrated stock solutions were further diluted with an aqueous mixture of 1.25% v/v ACTIROB® B or MSO® Concentrate with LECI-TECH® to obtain stock solutions at reduced application rates for each herbicide. Spray solutions of the herbicide combinations (Compound A or Compound B plus glyphosate or glufosinate) were prepared by adding weighed amounts or aliquots of the glyphosate or glufosinate to the stock solutions of Compound A or Compound B to form 12-mL spray solutions in two-way combinations.
(§4) The spray solutions were applied to the plant material with an overhead Mandel track sprayer equipped with 8002E nozzles calibrated to deliver 187 L/ha over an application area of 0.503 square meters (m^2) at a spray height of 18 inches (43 centimeters (cm)) above the average plant canopy. Control plants were sprayed in the same manner with the solvent blank. All pyridine carboxylate herbicide (component a) application rates are given as “g ae/ha” and all glyphosate or glufosinate (component b) application rates are given as “g ai/ha.”
(§5) The treated plants and control plants were placed in a greenhouse as described above and watered by sub-irrigation to prevent wash-off of the test compounds. After 20-22 d, the condition of the test plants as compared with that of the control plants was determined visually and scored on a scale of 0 to 100 percent where 0 corresponds to no injury and 100 corresponds to complete kill.

[2] = tested on: Polygonum convolvulus (wild buckwheat); assay: Greenhouse postemergence herbicidal effect, wild buckwheat (POLCO); details: 20-22 d
Source text: as §1, §2, §3, §4, §5

[3] = tested on: Sinapis arvensis (wild mustard); assay: Greenhouse postemergence herbicidal effect, wild mustard (SINAR); details: Example 6; Glufosinate 112.5 g ai/ha alone; 20-22 d
Source text: as §1, §2, §3, §4, §5

[4] = tested on: Salsola kali (Russian thistle); assay: Greenhouse postemergence herbicidal effect, Russian thistle (SASKR); details: Example 6; Glufosinate 112.5 g ai/ha alone; 20-22 d
Source text: as §1, §2, §3, §4, §5

Kochia scoparia (kochia) = assay: Greenhouse postemergence herbicidal effect, kochia (KCHSC); details: 20-22 d
Source text: as §1, §2, §3, §4, §5

[5] = tested on: Chenopodium album L. (common lambsquarters); assay: Greenhouse postemergence herbicidal effect, common lambsquarters (CHEAL); details: Glufosinate 112.5 g ai/ha alone, 20-22 d
Source text: as §1, §2, §3, §4, §5

[6] = tested on: Amaranthus retroflexus (pigweed); assay: Greenhouse postemergence herbicidal effect, pigweed (AMARE); details: Example 6; Glufosinate 112.5 g ai/ha alone; 20-22 d
Source text: as §1, §2, §3, §4, §5

[7] = tested on: Matricaria chamomilla (wild chamomile); assay: Greenhouse postemergence herbicidal effect, wild chamomile (MATCH); details: Example 6; Glufosinate 112.5 g ai/ha alone; 20-22 d
Source text: as §1, §2, §3, §4, §5

[8] = tested on: Cirsium arvense (Canadian thistle); assay: Greenhouse postemergence herbicidal effect, Canadian thistle (CIRAR); details: 20-22 d
Source text: as §1, §2, §3, §4, §5

[9] = tested on: Triticum aestivum (spring wheat); assay: Greenhouse postemergence phytotoxicity on crop, spring wheat (TRZAS); details: Example 6; Glufosinate 112.5 g ai/ha alone; 20-22 d
Source text: as §1, §2, §3, §4, §5

[10] = tested on: Hordeum vulgare (spring barley); assay: Greenhouse postemergence phytotoxicity on crop, spring barley (HORVS); details: Example 6; Glufosinate 112.5 g ai/ha alone; 20-22 d
Source text: as §1, §2, §3, §4, §5

[11] = tested on: Brassica napus (spring rape); assay: Greenhouse postemergence herbicidal effect, spring rape (BRSNN); details: Example 4; Glufosinate 112.5 g ai/ha alone; 20-22 d
Source text: as §1, §2, §3, §4, §5

[12] = tested on: Setaria faberi (giant foxtail); assay: Greenhouse postemergence herbicidal effect, giant foxtail (SETFA); details: Example 4; Glufosinate 112.5 g ai/ha alone; 20-22 d
Source text: as §1, §2, §3, §4, §5

[13] = tested on: Abutilon theophrasti (velvetleaf); assay: Greenhouse postemergence herbicidal effect, velvetleaf (ABUTH); details: Example 4; Glufosinate 112.5 g ai/ha alone; 20-22 d
Source text: as §1, §2
(§6) Emulsifiable concentrates of each of each pyridine carboxylate herbicide (Compound A or Compound B) were prepared at 100 grams acid equivalent per liter (g ae/L). The emulsifiable concentrates also included a safener, cloquintocet-mexyl, at 120 grams active ingredient per liter (g ai/L). […]
as §5

[14] = tested on: Viola tricolor (wild pansy); assay: Greenhouse postemergence herbicidal effect, wild pansy (VIOTR); details: 20-22 d
Source text: as §1, §2, §3, §4, §5

[15] = tested on: Stellaria media (chickweed); assay: Greenhouse postemergence herbicidal effect, chickweed (STEME); details: Example 5; Glufosinate 70 g ai/ha alone; 20-22 d
Source text: as §1, §2, §6, §5

[16] = tested on: Echinochloa crus-galli (barnyardgrass); assay: Greenhouse postemergence herbicidal effect, barnyardgrass (ECHCG); details: Example 5; Glufosinate 70 g ai/ha alone; 20-22 d
Source text: as §1, §2, §6, §5

[17] = tested on: Euphorbia heterophylla (poinsettia); assay: Greenhouse postemergence herbicidal effect, poinsettia (EPHHL); details: Example 5; Glufosinate 70 g ai/ha alone; 20-22 d
Source text: as §1, §2, §6, §5

[18] = tested on: Sorghum vulgare (grain sorghum); assay: Greenhouse postemergence herbicidal effect, grain sorghum (SORVU); details: Example 5; Glufosinate 70 g ai/ha alone; 20-22 d
Source text: as §1, §2, §6, §5

[19] = tested on: Cyperus esculentus (nutsedge); assay: Greenhouse postemergence herbicidal effect, nutsedge (CYPES); details: Example 5; Glufosinate 70 g ai/ha alone; 20-22 d
Source text: as §1, §2, §6, §5

[20] = tested on: Rumex obtusifolius (broad-leaf dock); assay: Greenhouse postemergence herbicidal effect, broad-leaf dock (RUMOB); details: Example 5; Glufosinate 70 g ai/ha alone; 20-22 d
Source text: as §1, §2, §6, §5

[21] = tested on: Ipomoea hederacea (ivyleaf morningglory); assay: Greenhouse postemergence herbicidal effect, ivyleaf morningglory (IPOHE); details: Example 5; Glufosinate 70 g ai/ha alone; 20-22 d
Source text: as §1, §2, §6, §5

[22] = tested on: Helianthus annuus (common sunflower); assay: Greenhouse postemergence herbicidal effect, common sunflower (HELAN); details: Example 5; Glufosinate 70 g ai/ha alone; 20-22 d
Source text: as §1, §2, §6, §5

[23] = Example 4, Glufosinate 112.5 g ai/ha alone
[24] = Example 5, Glufosinate 70 g ai/ha alone
[25] = Example 6, Glufosinate 112.5 g ai/ha alone

CP(=O)(O)CCC(N)C(=O)O (stereo not shown) [Glufosinate, 2-amino-4-(hydroxy(methyl)phosphinyl)butanoic acid]
% visual injury, Obs [1]: 20%
% visual injury, Obs [2, 23]: 10%
% visual injury, Obs [2, 24]: 70%
% visual injury, Obs [2, 25]: 15%
% visual injury, Obs [3]: 25%
% visual injury, Obs [4]: 53%
% visual injury, Obs (Kochia scoparia (kochia); [23]): 10%
% visual injury, Obs (Kochia scoparia (kochia); [24]): 15%
% visual injury, Obs (Kochia scoparia (kochia); [25]): 25%
% visual injury, Obs ([5]; Example 4): 5%
% visual injury, Obs ([5]; Example 6): 5%
% visual injury, Obs [6]: 65%
% visual injury, Obs [7]: 65%
% visual injury, Obs [8, 23]: 8%
% visual injury, Obs [8, 24]: 75%
% visual injury, Obs [8, 25]: 73%
% visual injury, Obs [9]: 35%
% visual injury, Obs [10]: 35%
% visual injury, Obs [11]: 33%
% visual injury, Obs [12]: 33%
% visual injury, Obs [13]: 20%
% visual injury, Obs [14, 23]: 23%
% visual injury, Obs [14, 24]: 20%
% visual injury, Obs [15]: 68%
% visual injury, Obs [16]: 30%
% visual injury, Obs [17]: 80%
% visual injury, Obs [18]: 58%
% visual injury, Obs [19]: 13%
% visual injury, Obs [20]: 73%
% visual injury, Obs [21]: 82%
% visual injury, Obs [22]: 98%
